According to patent publication US20240226178A1, “ELECTROPHYSIOLOGICAL MODIFICATION TO SUPPRESS ARRHYTHMIAS” (UNIVERSITY OF WASHINGTON, priority 2021, published 2024):

Tests used:
EA in pigs = details: after hPSC-CM transplantation, reference [17]; cited from earlier work
RUES2 hESC-CMs wild-type = assay: MEA dose-response of compounds on spontaneous electrical activity of hESC-CMs; assay type: cell-based, human; details: for beating frequency / beat rate (effect in words) / spike amplitude (effect in words): RUES2 hESC-CMs wild-type on MEA, increasing doses vs DMSO control
Source text: FIGS. 6A-6F. […] Data shown as mean±SEM of 2 independent experiments each with 6 technical replicates (wells), and normalized on experimental baseline and expressed as % vs. DMSO control. Lines represents nonlinear regression of normalized response Y=100/(1+10^((LogIC50-X)*HillSlope))).
FIGS. 13A-13C. […] (FIGS. 13A, 13B, 13C) Dose-response curve of Mibefradil (ICaT, FIG. 13A), Zacopride (IK1 agonist, FIG. 13B) and Verapamil (L-type calcium channel inhibitor, FIG. 13C) on MEA system. Data shown as mean±SEM of 2 independent experiments normalized on baseline and expressed as % vs DMSO control (N=2, n=6). Lines represent nonlinear regression of normalized response Y=100/(1+10^((LogIC50-X)*HillSlope))).
The role of ion channels in automaticity has been so far largely studied in the context of the adult mouse sinoatrial node. Whether the same mechanisms also apply to hPSC-CMs and/or fetal human cardiomyocytes remains controversial. First, a variety of pharmacological compounds were tested on hPSC-CMs derived from the RUES2 human embryonic stem cells (hESCs), which were differentiated by sequential small molecule-based activation and inhibition of the WNT pathway. The inventors performed electrophysiological analyses using a multielectrode array (MEA) to record the effects of the different compounds on hPSC-CMs spontaneous electrical activity. […] Zacopride, reported to have agonistic effect on the Kir2.1 channel (encoded by KCNJ2) that mediates IKI currents, was also tested.
CytoView™ MEA 48 were coated with 0.17 mg/mL of Matrigel for 1 hour at 37° C. […] For spontaneous beat recording, spontaneous electrical activity was recorded for 5 min using Maestro™ Pro system at 37° C. with 5% CO2. Considering the irregular beat rate of the cell lines bearing KCNJ2 KI, the data are shown as total number of beats recorded per experiment, divided by the total time of recording (average beats/min). For pharmacological studies, the different compounds were diluted in DMSO and incubated directly on MEA plates for 5 min at 37° C. Effects on spontaneous beat rate was determined by recording for 15 min after drug incubation. Non-linear regression curve calculated as Y=100/(1+10^((LogIC50-X)*HillSlope))). […] Quantification of beat rate, spike amplitude and beat period irregularity was performed using Axis Navigator (beat detector threshold: 30-100 μV; Minimum beat period: 200-500 ms; Maximum beat period: 30s).

Structure (SMILES) | beating frequency / beat rate (effect in words) (RUES2 hESC-CMs wild-type) | spike amplitude (effect in words) (RUES2 hESC-CMs wild-type) | also measured
COc1cc2c(cc1OC)CC(=O)N(CCCN(C)C[C@H]1Cc3cc(OC)c(OC)cc31)CC2 [Ivabradine] | potently reduced | did not alter | effect on EA in pigs (EA in pigs): reduces heart rate but does not prevent EA; spontaneous AP firing (RUES2 hESC-CMs wild-type; very high doses of ivabradine (100 μM)): did not prevent
N=C(N)SCCc1ccc(OCc2ccc([N+](=O)[O-])cc2)cc1 [KB-R3702] | dose-dependent reduction | dose-dependent reduction | 
CC(C)(C)CCN1C[C@@H]2C(CNC(=O)c3cc(Cl)cc(Cl)c3)[C@@H]2C1 (stereo partly shown) [ML-218] | no effect on beating frequency until spike amplitudes were undetectable |  | LogIC50 (RUES2 hESC-CMs wild-type; MEA dose-response, nonlinear regression of normalized response, log value, concentration unit not given): −4.8±0.1424; doses at which spike amplitude decreased (RUES2 hESC-CMs wild-type; MEA, hESC-CMs): above 1 μM
COCC(=O)O[C@]1(CCN(C)CCCc2nc3ccccc3[nH]2)CCc2cc(F)ccc2[C@@H]1C(C)C [Mibefradil] |  |  | IC50 (RUES2 hESC-CMs wild-type; Homo sapiens, MEA dose-response, nonlinear regression of normalized response, log value, concentration unit inferred): 20 nM
CCOc1ccc(Oc2ccc(OCc3cc(F)ccc3F)cc2)c(N)c1 [SEA0400] | dose-dependent reduction | dose-dependent reduction | 
COc1ccc(CCN(C)CCCC(C#N)(c2ccc(OC)c(OC)c2)C(C)C)cc1OC (stereo not shown) [Verapamil] | progressively decrease | progressively decrease | 
COc1cc(N)c(Cl)cc1C(=O)NC1CN2CCC1CC2 (stereo not shown) [Zacopride] | did not show measurable effects | did not show measurable effects | 
